Reference: ChEMBL document CHEMBL5291721, “A preclinical secondary pharmacology resource illuminates target-adverse drug reaction associations of marketed drugs” (Nat Commun, 2023)

Experiments:
Androgen receptor = target: T1, Androgen receptor (Homo sapiens, UniProt P10275)
T1 sequence (P10275 whole entry): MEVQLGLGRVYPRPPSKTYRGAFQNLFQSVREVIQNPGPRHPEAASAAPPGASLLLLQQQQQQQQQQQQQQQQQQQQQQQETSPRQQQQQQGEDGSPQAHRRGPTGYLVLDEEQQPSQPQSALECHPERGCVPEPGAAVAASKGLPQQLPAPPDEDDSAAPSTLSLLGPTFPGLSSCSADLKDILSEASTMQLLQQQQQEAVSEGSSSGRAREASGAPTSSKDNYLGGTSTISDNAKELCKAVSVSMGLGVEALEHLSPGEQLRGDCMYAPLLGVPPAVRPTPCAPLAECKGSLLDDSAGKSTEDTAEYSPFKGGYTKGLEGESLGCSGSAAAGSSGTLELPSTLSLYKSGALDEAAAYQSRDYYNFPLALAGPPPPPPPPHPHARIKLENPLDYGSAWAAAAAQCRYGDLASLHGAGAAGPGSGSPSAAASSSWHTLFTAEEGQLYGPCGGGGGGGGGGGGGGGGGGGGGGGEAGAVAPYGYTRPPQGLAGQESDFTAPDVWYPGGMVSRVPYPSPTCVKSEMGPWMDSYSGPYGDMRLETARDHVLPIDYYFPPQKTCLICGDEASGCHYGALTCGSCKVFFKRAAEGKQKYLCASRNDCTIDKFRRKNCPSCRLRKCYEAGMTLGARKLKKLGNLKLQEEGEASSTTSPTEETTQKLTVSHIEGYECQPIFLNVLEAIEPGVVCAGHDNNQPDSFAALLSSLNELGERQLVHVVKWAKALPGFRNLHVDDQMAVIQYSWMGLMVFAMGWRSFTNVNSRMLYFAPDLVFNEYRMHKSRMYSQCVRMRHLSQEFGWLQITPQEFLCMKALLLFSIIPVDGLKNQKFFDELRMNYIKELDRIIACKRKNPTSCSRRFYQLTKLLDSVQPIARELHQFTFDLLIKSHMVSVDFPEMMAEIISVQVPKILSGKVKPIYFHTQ

[1] = target: Vascular endothelial growth factor receptor 2 (Homo sapiens, UniProt P35968); format: functional
[2] = target: Prostaglandin G/H synthase 1 (Homo sapiens, UniProt P23219); format: functional
[3] = target: Beta-1 adrenergic receptor (Homo sapiens, UniProt P08588); format: functional
Cannabinoid receptor 1 = Cannabinoid receptor 1 (Homo sapiens, UniProt P21554)
[4] = target: T2, Neuropeptide Y receptor type 1 (Homo sapiens, UniProt P25929)
T2 sequence (P25929 whole entry): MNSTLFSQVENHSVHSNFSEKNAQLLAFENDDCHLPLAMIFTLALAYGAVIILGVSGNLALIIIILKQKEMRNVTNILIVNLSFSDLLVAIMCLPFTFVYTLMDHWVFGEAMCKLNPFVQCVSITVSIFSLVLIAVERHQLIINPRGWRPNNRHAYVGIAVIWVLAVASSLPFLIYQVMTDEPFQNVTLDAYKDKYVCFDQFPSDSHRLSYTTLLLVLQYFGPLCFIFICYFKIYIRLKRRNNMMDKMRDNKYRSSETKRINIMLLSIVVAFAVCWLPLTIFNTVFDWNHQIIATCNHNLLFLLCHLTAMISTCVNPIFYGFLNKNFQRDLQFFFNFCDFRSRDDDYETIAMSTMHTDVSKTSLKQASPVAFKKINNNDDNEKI

[5] = target: Kappa-type opioid receptor (Homo sapiens, UniProt P41145)
Progesterone receptor = target: T3, Progesterone receptor (Homo sapiens, UniProt P06401); format: functional
T3 sequence (P06401 whole entry): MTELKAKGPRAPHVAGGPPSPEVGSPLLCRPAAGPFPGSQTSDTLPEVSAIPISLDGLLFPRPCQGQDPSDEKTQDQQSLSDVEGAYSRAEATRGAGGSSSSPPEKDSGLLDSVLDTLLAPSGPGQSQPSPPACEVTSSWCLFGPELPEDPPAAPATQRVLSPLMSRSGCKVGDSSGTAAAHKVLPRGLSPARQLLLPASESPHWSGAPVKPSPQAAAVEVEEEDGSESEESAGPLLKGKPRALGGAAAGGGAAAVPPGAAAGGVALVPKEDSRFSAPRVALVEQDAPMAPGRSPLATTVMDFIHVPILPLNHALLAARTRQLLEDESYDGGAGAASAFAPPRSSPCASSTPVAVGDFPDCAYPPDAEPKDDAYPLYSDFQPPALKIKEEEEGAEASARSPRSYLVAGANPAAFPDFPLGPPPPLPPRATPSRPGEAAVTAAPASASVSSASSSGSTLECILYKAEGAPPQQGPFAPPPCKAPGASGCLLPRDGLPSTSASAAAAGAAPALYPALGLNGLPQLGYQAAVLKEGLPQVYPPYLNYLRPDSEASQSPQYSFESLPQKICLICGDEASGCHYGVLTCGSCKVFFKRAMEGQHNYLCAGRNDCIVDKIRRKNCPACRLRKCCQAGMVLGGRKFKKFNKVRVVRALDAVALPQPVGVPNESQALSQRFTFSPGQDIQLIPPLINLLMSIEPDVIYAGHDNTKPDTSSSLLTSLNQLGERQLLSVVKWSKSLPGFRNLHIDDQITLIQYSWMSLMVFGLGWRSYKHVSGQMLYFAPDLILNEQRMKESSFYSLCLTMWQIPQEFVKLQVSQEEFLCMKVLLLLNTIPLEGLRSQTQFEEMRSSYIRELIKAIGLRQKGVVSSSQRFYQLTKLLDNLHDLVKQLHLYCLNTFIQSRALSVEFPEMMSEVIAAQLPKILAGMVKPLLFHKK

[6] = target: T4, Amine oxidase [flavin-containing] A (Homo sapiens, UniProt P21397); format: functional
T4 sequence (P21397 whole entry): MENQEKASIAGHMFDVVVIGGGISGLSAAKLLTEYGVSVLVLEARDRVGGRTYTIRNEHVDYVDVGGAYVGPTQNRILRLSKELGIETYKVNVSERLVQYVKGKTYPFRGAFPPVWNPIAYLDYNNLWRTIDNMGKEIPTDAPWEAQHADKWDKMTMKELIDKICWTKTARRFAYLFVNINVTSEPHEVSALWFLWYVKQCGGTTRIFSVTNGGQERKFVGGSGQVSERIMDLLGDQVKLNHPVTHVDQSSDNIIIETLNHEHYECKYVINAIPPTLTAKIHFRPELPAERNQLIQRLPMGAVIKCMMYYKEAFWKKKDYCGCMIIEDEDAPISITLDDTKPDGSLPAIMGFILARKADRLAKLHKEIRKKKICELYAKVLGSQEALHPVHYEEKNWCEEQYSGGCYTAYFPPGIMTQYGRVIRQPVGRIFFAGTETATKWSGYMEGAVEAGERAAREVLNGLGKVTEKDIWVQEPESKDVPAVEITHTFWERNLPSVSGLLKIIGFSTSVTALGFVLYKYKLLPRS
Also: assay procedure not described here.

Sequence of Beta-1 adrenergic receptor (P08588 whole entry): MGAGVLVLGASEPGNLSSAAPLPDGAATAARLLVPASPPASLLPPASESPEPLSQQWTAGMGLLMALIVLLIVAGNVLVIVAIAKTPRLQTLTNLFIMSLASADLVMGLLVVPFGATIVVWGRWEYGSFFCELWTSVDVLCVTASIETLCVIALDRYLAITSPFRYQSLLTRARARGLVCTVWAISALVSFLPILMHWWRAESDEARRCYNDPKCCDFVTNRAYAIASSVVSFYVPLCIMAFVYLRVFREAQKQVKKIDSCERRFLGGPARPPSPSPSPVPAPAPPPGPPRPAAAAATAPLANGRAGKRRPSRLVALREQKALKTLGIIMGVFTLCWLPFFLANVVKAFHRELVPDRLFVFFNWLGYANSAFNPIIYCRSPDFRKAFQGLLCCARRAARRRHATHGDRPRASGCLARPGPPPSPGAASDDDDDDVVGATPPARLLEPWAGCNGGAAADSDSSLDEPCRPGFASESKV
Sequence of Cannabinoid receptor 1 (P21554 whole entry): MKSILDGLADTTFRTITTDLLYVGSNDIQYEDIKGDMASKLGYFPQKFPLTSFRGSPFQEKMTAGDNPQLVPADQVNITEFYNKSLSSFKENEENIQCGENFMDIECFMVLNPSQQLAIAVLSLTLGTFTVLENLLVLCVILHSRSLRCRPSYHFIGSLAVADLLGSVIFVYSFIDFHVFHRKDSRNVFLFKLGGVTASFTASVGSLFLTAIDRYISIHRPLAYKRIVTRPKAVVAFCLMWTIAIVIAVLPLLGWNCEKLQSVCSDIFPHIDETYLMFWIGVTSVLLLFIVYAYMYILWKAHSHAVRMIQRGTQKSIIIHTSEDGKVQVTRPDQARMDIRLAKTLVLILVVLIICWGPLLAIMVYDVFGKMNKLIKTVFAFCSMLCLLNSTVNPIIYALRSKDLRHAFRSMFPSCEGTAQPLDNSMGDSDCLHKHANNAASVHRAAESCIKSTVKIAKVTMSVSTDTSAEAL
Sequence of Vascular endothelial growth factor receptor 2 (P35968 whole entry): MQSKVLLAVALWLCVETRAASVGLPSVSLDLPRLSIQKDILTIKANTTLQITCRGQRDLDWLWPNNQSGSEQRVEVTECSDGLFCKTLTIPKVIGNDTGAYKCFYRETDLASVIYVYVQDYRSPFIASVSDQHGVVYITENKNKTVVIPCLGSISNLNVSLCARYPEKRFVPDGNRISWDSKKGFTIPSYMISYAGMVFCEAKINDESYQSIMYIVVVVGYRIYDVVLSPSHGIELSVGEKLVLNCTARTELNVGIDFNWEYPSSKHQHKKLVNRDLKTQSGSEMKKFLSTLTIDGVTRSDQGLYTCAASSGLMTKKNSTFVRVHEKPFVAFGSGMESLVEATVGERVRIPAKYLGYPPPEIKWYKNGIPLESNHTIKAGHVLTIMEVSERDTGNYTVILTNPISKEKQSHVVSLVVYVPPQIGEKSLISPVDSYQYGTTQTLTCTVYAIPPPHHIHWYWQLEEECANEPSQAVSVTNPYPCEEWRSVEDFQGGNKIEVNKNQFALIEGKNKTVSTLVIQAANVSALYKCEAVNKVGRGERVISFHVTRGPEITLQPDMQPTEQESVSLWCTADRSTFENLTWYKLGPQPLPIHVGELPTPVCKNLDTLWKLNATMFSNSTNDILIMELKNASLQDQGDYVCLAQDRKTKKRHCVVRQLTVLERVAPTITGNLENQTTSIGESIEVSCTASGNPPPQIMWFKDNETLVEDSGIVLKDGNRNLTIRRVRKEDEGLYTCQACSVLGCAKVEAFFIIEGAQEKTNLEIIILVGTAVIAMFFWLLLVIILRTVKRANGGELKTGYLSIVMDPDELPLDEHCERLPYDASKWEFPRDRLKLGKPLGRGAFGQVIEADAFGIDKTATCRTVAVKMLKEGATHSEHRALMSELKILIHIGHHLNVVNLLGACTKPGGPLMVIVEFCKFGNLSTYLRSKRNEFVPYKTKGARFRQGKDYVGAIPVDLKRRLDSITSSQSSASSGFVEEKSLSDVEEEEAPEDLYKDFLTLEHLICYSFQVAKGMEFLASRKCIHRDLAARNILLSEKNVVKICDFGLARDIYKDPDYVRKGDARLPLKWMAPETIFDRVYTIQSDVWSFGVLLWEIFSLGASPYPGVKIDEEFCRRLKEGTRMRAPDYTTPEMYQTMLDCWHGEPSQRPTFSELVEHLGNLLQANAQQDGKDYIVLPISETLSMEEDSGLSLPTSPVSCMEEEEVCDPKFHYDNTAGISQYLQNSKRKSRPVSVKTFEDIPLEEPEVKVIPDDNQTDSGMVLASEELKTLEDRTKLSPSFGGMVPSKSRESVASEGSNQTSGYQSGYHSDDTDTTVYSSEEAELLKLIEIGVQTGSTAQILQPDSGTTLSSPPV
Sequence of Kappa-type opioid receptor (P41145 whole entry): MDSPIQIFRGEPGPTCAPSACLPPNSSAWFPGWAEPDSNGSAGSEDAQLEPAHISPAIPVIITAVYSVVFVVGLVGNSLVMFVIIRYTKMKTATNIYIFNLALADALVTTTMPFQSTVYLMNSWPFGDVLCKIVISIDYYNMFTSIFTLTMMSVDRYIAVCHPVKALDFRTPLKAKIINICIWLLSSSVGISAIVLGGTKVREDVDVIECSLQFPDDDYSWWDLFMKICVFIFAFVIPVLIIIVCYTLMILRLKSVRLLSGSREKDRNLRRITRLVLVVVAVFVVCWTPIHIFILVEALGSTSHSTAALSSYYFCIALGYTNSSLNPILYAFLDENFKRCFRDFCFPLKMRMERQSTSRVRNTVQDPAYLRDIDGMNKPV
Sequence of Prostaglandin G/H synthase 1 (P23219 whole entry): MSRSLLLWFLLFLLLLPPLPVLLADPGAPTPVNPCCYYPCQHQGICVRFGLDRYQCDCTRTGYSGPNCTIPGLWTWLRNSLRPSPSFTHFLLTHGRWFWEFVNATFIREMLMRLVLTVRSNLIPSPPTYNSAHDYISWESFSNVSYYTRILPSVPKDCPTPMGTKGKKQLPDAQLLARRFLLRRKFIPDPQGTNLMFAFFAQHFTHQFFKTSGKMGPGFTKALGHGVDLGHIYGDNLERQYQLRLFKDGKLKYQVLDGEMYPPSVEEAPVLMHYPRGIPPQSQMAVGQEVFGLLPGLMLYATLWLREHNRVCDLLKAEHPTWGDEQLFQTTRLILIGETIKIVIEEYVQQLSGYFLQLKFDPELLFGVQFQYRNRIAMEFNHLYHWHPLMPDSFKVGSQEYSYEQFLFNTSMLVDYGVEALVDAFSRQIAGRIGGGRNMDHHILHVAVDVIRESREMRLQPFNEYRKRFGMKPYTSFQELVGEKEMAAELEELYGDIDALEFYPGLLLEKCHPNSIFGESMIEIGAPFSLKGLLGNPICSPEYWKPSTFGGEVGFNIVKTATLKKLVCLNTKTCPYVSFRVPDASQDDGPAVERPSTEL

CN(C)c1ccc(C(=C2C=CC(=[N+](C)C)C=C2)c2ccc(N(C)C)cc2)cc1 [GENTIAN VIOLET]
AC50 (Androgen receptor): > 30 µM
AC50 [1]: 2.97 µM
AC50 [2]: 20.8 µM

HYDROXOCOBALAMIN
AC50 [3]: > 30 µM
AC50 (Cannabinoid receptor 1): > 30 µM
AC50 [4]: > 30 µM
AC50 [5]: > 30 µM
AC50 (Progesterone receptor): > 30 µM
AC50 [6]: > 30 µM
